Experimental data: patent US11154589B2, “Antimicrobial composition combinations comprising star shaped peptide polymers” (The University of Melbourne, priority 2016, dated 2021)
Converted amounts (≈) assume the structure as drawn. Marks after values point to notes of the source that are not given here.

Columns and labels:
[1] = tested on: CMDR A. baumannii (FADDI-AB156); assay: MBC determination (in vitro antimicrobial experiment, CFU counting); type: cell-based, Acinetobacter baumannii; conditions: Acinetobacter baumannii, compound alone
Method: (§1) Freeze-dried cultures of Escherichia coli (E. coli, ATCC 25922), Klebsiella pneumoniae (K. pneumoniae, ATCC 13883), Pseudomonas aeruginosa (P. aeruginosa, ATCC 47085), Acinetobacter baumannii (A. baumannii, ATCC 19606), colistin and multidrug-resistant (CMDR) A. baumannii (FADDI-AB156), and CMDR P. aeruginosa (FADDI-PA067) were grown aerobically and maintained by passage at ambient temperature on horse blood agar (10% v/v defibrinated horse blood, 4.4% w/v Oxoid Blood Agar Base No. 2). Overnight cultures were made from transferring a colony (ca. half a loop) from the agar plates to culture tubes containing sterilized Luria-Bertani broth (LB, 1% w/v Bacto™ Tryptone, 1% w/v NaCl, 0.5% w/v Oxoid Yeast Extract) (20 mL). Bacterial cultures were incubated overnight at 37° C. with aeration and without agitation, with the exception of the two P. aeruginosa strains (ATCC 47085 and FADDI-PA067) which were cultured at 37° C. with aeration and agitation (150 rpm). On the next day, for E. coli, K. pneumonia, P. aeruginosa (ATCC 47085), and CMDR P. aeruginosa (FADDI-PA067), small aliquots (i.e., 0.5-3 mL) were taken from the culture tubes, further diluted with LB (20 mL), and incubated for 3-4 h at 37° C. with aeration before use. All bacterial cultures were cultured without agitation, with the exception of P. aeruginosa ATCC 47085 and FADDI-PA067 which were cultured with shaking at 150 rpm. For A. baumannii, an aliquot of 0.5 mL was taken from the overnight culture tube, further diluted with LB (200 mL), and incubated overnight at 37° C. with aeration before use.
(§2) The 96-well plate was then incubated at 37° C. for 1.5 or 3 h. For each well, microbial solution was diluted with saline (0.9% NaCl solution) using an appropriate dilution factor and placed on a LB agar plate (LB broth containing 15 g/L Oxoid Blood Agar Base No. 2). For E. coli, K. pneumoniae, and A. Baumannii (ATCC 19606 and FADDI-AB156), the agar plates were incubated overnight at room temperature, and then at 37° C. with aeration for 2 h. For P. Aeruginosa (ATCC 47085 and FADDI-PA067), the agar plates were incubated at 37° C. with aeration. The number of colony-forming units (CFU) was counted and expressed as CFU/mL. Positive controls consisting of cells without any treatment were used. […] A minimum of two independent experiments (biological replicates) of the assay were conducted and three technical replicates were used in each experiment. Data is expressed as mean±standard deviation (SD) and analysed using student's t-test.

[2] = tested on: Acinetobacter baumannii (A. baumannii, ATCC 19606); assay: as above; type: cell-based; conditions: Acinetobacter baumannii, ATCC19606; compound alone; A. baumannii (wild-type)
Method: as §1, §2

[3] = tested on: Pseudomonas aeruginosa (P. aeruginosa, ATCC 47085); assay: as above; type: cell-based; conditions: compound alone, P. aeruginosa (wild-type)
Method: as §1, §2

[4] = tested on: Klebsiella pneumoniae (K. pneumoniae, ATCC 13883); assay: as above; type: cell-based; conditions: Klebsiella pneumoniae, ATCC13883, compound alone
Method: as §1, §2

[5] = tested on: Escherichia coli (E. coli, ATCC 25922); assay: as above; type: cell-based; conditions: Escherichia coli, ATCC25922, compound alone
Method: as §1, §2

[6] = tested on: CMDR A. baumannii (FADDI-AB156); assay: S16-antibiotic co-administration, synergy by Bliss Independence and HSA models; type: cell-based, Acinetobacter baumannii
Method: as §2
(§3) The Bliss Independence and HSA models were used to calculate drug synergism. […] Biotechnol. 31, 160-165 (2013). With the Bliss Independence model, synergism was calculated using the formula, BICAB=A+B−AB (1), where A and B are the effects of the two drugs in isolation and BICAB is the combined effect of the two drugs as predicted by the Bliss Independence model. […] In the HSA model, if CAB is greater than the greater of A and B, CAB>max(A, B), synergy is observed. The quantitative effect of the compounds when administered alone (i.e., A and B) or in combination (i.e., CAB) was defined as the fractional reduction of the population, R=1−CFUt/CFU0, where CFUt is the CFU/mL measured after treatment, and CFU0 is the CFU/mL measured before treatment.

[7] = tested on: CMDR P. aeruginosa (FADDI-PA067); assay: MBC determination (in vitro antimicrobial experiment, CFU counting); type: cell-based, Pseudomonas aeruginosa; conditions: compound alone
Method: as §1, §2

[8] = tested on: CMDR A. baumannii (FADDI-AB156); assay: Antibiogram of CMDR A. baumannii (MIC); type: cell-based, Acinetobacter baumannii; conditions: CMDR A. baumannii (FADDI-AB156)
[9] = tested on: Acinetobacter baumannii (A. baumannii, ATCC 19606); assay: S16-antibiotic co-administration, synergy by Bliss Independence and HSA models; type: cell-based
Method: as §2, §3

[10] = tested on: Pseudomonas aeruginosa (P. aeruginosa, ATCC 47085); assay: as above; type: cell-based; conditions: for Fold reduction of MBC: MBCeff with S16 versus MBC alone
Method: as §2, §3

[11] = tested on: Klebsiella pneumoniae (K. pneumoniae, ATCC 13883); assay: as above; type: cell-based
Method: as §2, §3

[12] = tested on: Escherichia coli (E. coli, ATCC 25922); assay: as above; type: cell-based
Method: as §2, §3

[13] = S16 and antibiotic co-administered, each at MBC50, 3 h
[14] = antibiotic in combination with S16, 3 h, Bliss Independence model
[15] = antibiotic in combination with S16, 3 h, Highest Single Agent model

CC1(C)S[C@@H]2[C@H](NC(=O)[C@H](N)c3ccccc3)C(=O)N2[C@H]1C(=O)O [Amp, ampicillin]
MBC [1]: > 2930 µM
MBC [2]: > 2930 µM
MBC ([3]; Pseudomonas aeruginosa, ATCC47085): > 5860 µM
MBC [3]: >5860.0 µM
MBC [4]: 655 µM (≈ 229 µg/mL)
MBC [5]: 9.4 µM (≈ 3.28 µg/mL)
Interaction with S16 as evaluated by the Bliss Independence and HSA models (in words) ([6]; 3 h time point): synergistic
MBC in combination [6, 13]: 2930.7 µM
Antimicrobial activity on co-administration with S16 compared to compounds alone (log change in CFU/mL) ([6]; all compounds at MBC50, t=3 h): Enhanced antimicrobial activity
Synergistic? (Yes/No) Bliss* [6, 14]: Yes
Synergistic? (Yes/No) HAS* [6, 15]: Yes
MBC ([7]; Pseudomonas aeruginosa): < 1.4 µM
MBC [7]: <1.4 µM
MIC ([8]; Acinetobacter baumannii, read-out: MIC): > 2930 µM
Susceptibility ([8]; interpreted by CLSI resistant breakpoints): Resistant
Interaction with S16 as evaluated by the Bliss Independence and HSA models (in words) ([9]; A. baumannii wild-type, 3 h time point): additive
Antimicrobial activity on co-administration with S16 compared to compounds alone (log change in CFU/mL) ([9]; A. baumannii wild-type, all compounds at MBC50, t=3 h): significantly enhanced antimicrobial activity
MBC in combination ([9]; A. baumannii, S16 and antibiotic co-administered, each at MBC50, 3 h): 1465.4 µM
Synergistic? (Yes/No) Bliss* ([9]; antibiotic in combination with S16, A. baumannii, 3 h, Bliss Independence model): No
Synergistic? (Yes/No) HAS* ([9]; antibiotic in combination with S16, A. baumannii, 3 h, Highest Single Agent model): No
Interaction with S16 as evaluated by the Bliss Independence and HSA models (in words) ([10]; P. aeruginosa wild-type, 3 h time point): synergistic
Antimicrobial activity on co-administration with S16 compared to compounds alone (log change in CFU/mL) ([10]; P. aeruginosa wild-type, all compounds at MBC50, t=3 h): significantly enhanced antimicrobial activity
Fold reduction of MBC ([10]; P. aeruginosa): > 16 fold
Fold reduction of MBC ([10]; P. aeruginosa, listed as ampicillin): more than 16 fold
MBC in combination ([10]; P. aeruginosa, S16 and antibiotic co-administered, each at MBC50, 3 h): 2930.7 µM
reduction (printed in parentheses beside fold reduction of MBC) ([10]; P. aeruginosa, antibiotic co-administered with S16): 99.9%
MBC in combination, MBCeff ([10]; P. aeruginosa, co-administered S16 (at MBC50) and antibiotic, antibiotic concentration giving at least 2-log reduction in CFU/mL, 3 h): 366.3^a μM
Synergistic? (Yes/No) Bliss* ([10]; antibiotic in combination with S16, P. aeruginosa, 3 h, Bliss Independence model): Yes
Synergistic? (Yes/No) HAS* ([10]; antibiotic in combination with S16, P. aeruginosa, 3 h, Highest Single Agent model): Yes
Interaction with S16 as evaluated by the Bliss Independence and HSA models (in words) ([11]; 3 h time point): synergistic
MBC in combination [11, 13]: 327.6 µM
Antimicrobial activity on co-administration with S16 compared to compounds alone (log change in CFU/mL) ([11]; all compounds at MBC50, t=3 h): significantly enhanced antimicrobial activity
Synergistic? (Yes/No) Bliss* [11, 14]: Yes
Synergistic? (Yes/No) HAS* [11, 15]: Yes
Interaction with S16 as evaluated by the Bliss Independence and HSA models (in words) ([12]; 3 h time point): additive
MBC in combination [12, 13]: 5.7 µM
Antimicrobial activity on co-administration with S16 compared to compounds alone (log change in CFU/mL) ([12]; all compounds at MBC50, t=3 h): significantly enhanced antimicrobial activity
Synergistic? (Yes/No) Bliss* [12, 14]: No
Synergistic? (Yes/No) HAS* [12, 15]: No
